Experimental data reported in ChEMBL document CHEMBL1121905, “erythro-5-[1-Hydroxy-2-(isopropylamino)butyl]-7-hydroxycarbostyril, a terbutaline-type derivative of the bronchodilator procaterol” (1981).

What was measured:
[1] = species on record: Cavia porcellus; test: Intrinsic activity in guinea pig trachea; assay type: functional
[2] = species on record: Cavia porcellus; test: Compound was tested for effective dose required for 50% of maximum response in guinea pig trachea; assay type: functional; settings: read-out: ED50 (the source's name)
[3] = species on record: Cavia porcellus; test: Intrinsic activity (n=5) in guinea pig right atrium
[4] = species on record: Cavia porcellus; test: Compound was tested for effective dose required for 25% of maximum response in guinea pig right atrium
[5] = tested on: Canis familiaris; test: Compound was tested in anesthetized dogs for inhibition of bronchoconstriction (equipotent dose at ED50) Mean ED50 value, obtained at a dose of 0.054 ug/kg; assay type: functional; settings: Canis lupus familiaris, Lung
[6] = tested on: Canis familiaris; test: Compound was tested in anesthetized dogs for increase in heart rate (equipotent dose at ED25) Mean ED25 value, obtained at a dose of 0.021 ug/kg; assay type: functional; settings: Canis lupus familiaris
[7] = species on record: Cavia porcellus; test: Compound was tested for effective dose required for 25% of maximum response in guinea pig right atrium; maximal activity was obtained at 1 x 10 e-5 mol/L

| SMILES | Intrinsic activity [1] | EC50 [2] [nM] | Intrinsic activity [3] | ED25 [4] [nM] | ED50 [5] [mg/kg] | ED25 [6] [mg/kg] | ED25 [7] |
| --- | --- | --- | --- | --- | --- | --- | --- |
| CCC(NC(C)C)C(O)c1cc(O)cc2c1CCC(=O)N2 (configuration not stated) | 0.6 | 1220 | 0.27 | 566 |  |  |  |
| CC(C)NCC(O)c1ccc(O)c(O)c1 (configuration not stated) [ISOPROTERENOL] |  |  |  |  | 0.001 | 0.001 |  |
| CCC(NC(C)C)C(O)c1cc(O)cc2nc(O)ccc12 (configuration not stated) | 0.5 | 225 |  |  | 0.0417 | 0.0871 | maximal activity was obtained at 1 x 10 e-5 mol/L |
| CCC(NC(C)C)C(O)c1ccc(O)c2[nH]c(=O)ccc12 (configuration not stated) [PROCATEROL] | 0.98 | 11 | 0.6 | 5.7 |  |  |  |
| CC(C)(C)NCC(O)c1cc(O)cc(O)c1 (configuration not stated) [TERBUTALINE] | 0.7 |  | 0.73 |  |  |  |  |
